{"source": "patent US20260274810A1", "about": "“NOVEL MITOFUSIN INHIBITORS” (ALBERT EINSTEIN COLLEGE OF MEDICINE, priority 2023, published 2026)", "key": {"cells": {"system": "cells", "test": "Cell death assay (Annexin V / PI)", "format": "cell-based", "protocol": "Cell death assay. Cells (2×10^5 cells/well) were seeded in a 6-well plate and treated with the indicated drugs for 6 hours. Cells were dissociated using Accutase (Thermo Fisher; Cat. #00-4555-56) in order to avoid accidental exposure of phosphatidylserine on the outer plasma membrane. Cell death was evaluated with Dead Cell Apoptosis Kit with Annexin V Alexa Fluor™ 488 & Propidium Iodide (Thermo Fisher; Cat. #V13241) according to manufacturer's protocol. Data was acquired by BD LSRII flow cytometer system using BD FACSDiva software. Data was analyzed by FlowJo (BD)."}, "MFNs": {"system": "MFNs", "conditions": "reported small molecule; cited from earlier work"}, "MEFs": {"system": "MEFs", "test": "Mitochondrial aspect ratio (Mito AR), live cell imaging", "conditions": "for mitochondrial aspect ratio / mitochondrial fragmentation: WT cells"}, "caspase-3/7 in MEFs": {"system": "caspase-3/7 in MEFs", "test": "Caspase-3/7 activation assay", "format": "cell-based, mouse", "conditions": "6 hr", "protocol": "Caspase-3/7 activation assay. Cells (5×10^3 cells/well) were seeded in a 96-well white plate and treated with MASM7, MFI8. Caspase 3/7 activation was measured after 6 hr by addition of the Caspase-Glo 3/7 reagent according to the manufacturer's protocol (Promega). Luminescence was detected by a F200 PRO microplate reader (TECAN). Caspase assays were performed in at least triplicate and the data normalized to vehicle-treated control wells. Dilutions of MASM7 or MFI8 were performed using a TECAN D300e Digital Dispenser from 10 mM stocks."}, "HR2 domain of MFN2": {"target": "T1, HR2 domain of MFN2 (Homo sapiens, UniProt O95140)", "T1 construct": "Human MFN2 residues 678-757 corresponding to the HR2 domain; made in house; host or cells: E. coli BL21(DE3) CodonPlus (DE3)-RIPL", "T1 sequence (O95140 678-757)": "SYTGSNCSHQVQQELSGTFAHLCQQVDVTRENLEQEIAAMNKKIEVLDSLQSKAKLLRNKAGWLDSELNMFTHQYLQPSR", "test": "Microscale thermophoresis (MST) binding"}, "[1]": {"test": "mouse liver microsome assay", "format": "in vitro ADME", "conditions": "FIG. 2"}}, "note": "Numbered stars: 1 amine (or outer) side, 2 acyl side, 3 side chain; on linkers, the order of the positions; unused ones are H or OH. Bridge positions count the residues as written; N and C are the ends. Square brackets hold non-standard residues; d marks the D form. Peptide text beside a SMILES is read from it. I, II: the chains in the order shown. Hexamethylenediamine = C(CCCN[*:2])CCN[*:1]; Dip = N[C@H](C(=O)O)C(c1ccccc1)c1ccccc1; Chg = N[C@H](C(=O)O)C1CCCCC1; NMeA = CN[C@@H](C)C(=O)O", "data": [{"smiles": "CN[C@@H](C)C(=O)N[C@H](C(=O)N1CCC[C@H]1C(=O)N[C@H](C(=O)NCCCCCCNC(=O)[C@@H](NC(=O)[C@@H]1CCCN1C(=O)[C@@H](NC(=O)[C@H](C)NC)C1CCCCC1)C(c1ccccc1)c1ccccc1)C(c1ccccc1)c1ccccc1)C1CCCCC1", "note": "[BV6, reference compound] (I: H-[NMeA][Chg]P[Dip] / II: H-[NMeA][Chg]P[Dip]; linker I:C-II:C via Hexamethylenediamine)", "values": [{"measurement": "cell death on BV6 treatment", "setting": "cells; deletion of MFNs", "value": "sensitized cells to BV6 treatment"}]}, {"smiles": "Cc1oncc1C(=O)Nc1ccc(C(F)(F)F)cc1", "note": "[Leflunomide]", "values": [{"measurement": "MFNs protein levels", "setting": "MFNs", "value": "alters MFNs protein levels through loss of pyrimidine synthesis"}]}, {"smiles": "Cc1cccc(NC(C)c2ccccc2O)c1C", "note": "(stereo not shown) [MFI22]", "values": [{"measurement": "mitochondrial aspect ratio / mitochondrial fragmentation", "setting": "MEFs", "value": "significantly reduced the capacity of the compound to promote mitochondrial fragmentation"}, {"measurement": "caspase-3/7 activity", "setting": "caspase-3/7 in MEFs", "value": "did not increase caspase-3/7 activity"}, {"measurement": "binding to the HR2 domain of MFN2", "setting": "HR2 domain of MFN2", "value": "did not demonstrate measurable binding"}, {"measurement": "sensitization to BV6-induced cell death", "setting": "cells; combined with BV6", "value": "did not sensitize cells to BV6 treatment"}]}, {"smiles": "Cc1cccc(NC(C)c2cccc(Cl)c2)c1C", "note": "(stereo not shown) [MFI26]", "values": [{"measurement": "mitochondrial aspect ratio / mitochondrial fragmentation", "setting": "MEFs", "value": "detrimental for the activity"}, {"measurement": "binding to the HR2 domain of MFN2", "setting": "HR2 domain of MFN2", "value": "did not demonstrate measurable binding"}]}, {"smiles": "Cc1cccc(NC(=O)c2cc(Cl)cc(-c3ccccn3)c2O)c1C", "note": "[MFI43]", "values": [{"measurement": "IC50", "setting": "MEFs; Mus musculus, 6 h, read-out: IC50 (decrease of Mito AR)", "value": 1790, "unit": "nM"}, {"measurement": "half life (t½)", "setting": "[1]", "value": "increased half life"}]}]}
